Experimental data published in PMC4483627 (Marine Drugs, 2015).
Several values for one entry are separate records, joined by “and”; a condition that tells them apart may be missing. Equal entries are not always repeated. Positions of bridges follow the written chain, without caps; N, C: chain ends. Residues, ends and D or L forms follow the SMILES beside them.

Assays:
Assay in all cases: cell-based
rat nAChR α2β4 = target: T1, rat nAChR α2β4 (Rattus norvegicus, UniProt P12389+P12392); settings: for IC50: IC50 α2β4
T1 construct: expressed in transfected cells; host or cells: Xenopus oocytes injected with cRNA
T1 sequence (P12389 28-511 limits assumed): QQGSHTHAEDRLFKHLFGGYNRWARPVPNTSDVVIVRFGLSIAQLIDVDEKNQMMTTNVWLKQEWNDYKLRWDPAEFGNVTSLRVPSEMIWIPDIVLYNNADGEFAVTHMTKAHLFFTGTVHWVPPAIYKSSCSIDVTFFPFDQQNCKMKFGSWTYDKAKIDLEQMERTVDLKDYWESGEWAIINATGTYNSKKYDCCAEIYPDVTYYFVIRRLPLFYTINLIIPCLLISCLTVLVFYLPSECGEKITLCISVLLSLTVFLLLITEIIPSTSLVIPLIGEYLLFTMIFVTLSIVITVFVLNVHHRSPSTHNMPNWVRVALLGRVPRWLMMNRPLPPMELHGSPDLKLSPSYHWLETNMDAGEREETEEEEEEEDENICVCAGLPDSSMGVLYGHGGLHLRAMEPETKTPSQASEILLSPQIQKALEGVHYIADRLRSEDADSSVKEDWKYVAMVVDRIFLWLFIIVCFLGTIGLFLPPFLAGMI
T1 sequence (P12392 21-495 limits assumed): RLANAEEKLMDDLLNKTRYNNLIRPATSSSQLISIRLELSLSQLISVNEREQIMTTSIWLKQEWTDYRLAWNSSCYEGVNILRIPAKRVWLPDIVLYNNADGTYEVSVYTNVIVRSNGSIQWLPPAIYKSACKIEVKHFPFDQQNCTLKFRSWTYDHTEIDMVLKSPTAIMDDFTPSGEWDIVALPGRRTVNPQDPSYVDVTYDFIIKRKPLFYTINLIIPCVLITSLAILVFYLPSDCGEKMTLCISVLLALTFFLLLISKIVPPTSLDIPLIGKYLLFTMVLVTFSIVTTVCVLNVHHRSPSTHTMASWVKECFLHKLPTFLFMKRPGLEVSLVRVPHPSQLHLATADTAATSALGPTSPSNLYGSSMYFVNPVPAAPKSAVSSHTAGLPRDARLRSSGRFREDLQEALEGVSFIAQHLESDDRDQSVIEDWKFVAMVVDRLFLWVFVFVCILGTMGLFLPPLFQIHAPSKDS

rat nAChR α3β2 [1] = target: T2, rat nAChR α3β2 (Rattus norvegicus, UniProt P04757+P12390); type: cell-based
T2 construct: expressed in transfected cells; host or cells: Xenopus oocytes injected with cRNA
T2 sequence (P04757 26-499 limits assumed): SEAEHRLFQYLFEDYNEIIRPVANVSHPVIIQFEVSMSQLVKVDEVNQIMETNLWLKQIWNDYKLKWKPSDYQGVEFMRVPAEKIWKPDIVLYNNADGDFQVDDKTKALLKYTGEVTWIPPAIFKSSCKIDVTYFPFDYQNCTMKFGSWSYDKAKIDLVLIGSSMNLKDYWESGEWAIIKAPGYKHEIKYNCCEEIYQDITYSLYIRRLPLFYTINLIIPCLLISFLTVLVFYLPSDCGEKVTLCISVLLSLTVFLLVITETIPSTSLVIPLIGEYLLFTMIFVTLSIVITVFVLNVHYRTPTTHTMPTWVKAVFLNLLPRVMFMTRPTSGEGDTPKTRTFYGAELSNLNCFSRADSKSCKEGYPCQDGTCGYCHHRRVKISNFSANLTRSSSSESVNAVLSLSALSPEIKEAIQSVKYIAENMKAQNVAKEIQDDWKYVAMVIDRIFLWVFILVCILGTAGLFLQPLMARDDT
T2 sequence (P12390 25-500 limits assumed): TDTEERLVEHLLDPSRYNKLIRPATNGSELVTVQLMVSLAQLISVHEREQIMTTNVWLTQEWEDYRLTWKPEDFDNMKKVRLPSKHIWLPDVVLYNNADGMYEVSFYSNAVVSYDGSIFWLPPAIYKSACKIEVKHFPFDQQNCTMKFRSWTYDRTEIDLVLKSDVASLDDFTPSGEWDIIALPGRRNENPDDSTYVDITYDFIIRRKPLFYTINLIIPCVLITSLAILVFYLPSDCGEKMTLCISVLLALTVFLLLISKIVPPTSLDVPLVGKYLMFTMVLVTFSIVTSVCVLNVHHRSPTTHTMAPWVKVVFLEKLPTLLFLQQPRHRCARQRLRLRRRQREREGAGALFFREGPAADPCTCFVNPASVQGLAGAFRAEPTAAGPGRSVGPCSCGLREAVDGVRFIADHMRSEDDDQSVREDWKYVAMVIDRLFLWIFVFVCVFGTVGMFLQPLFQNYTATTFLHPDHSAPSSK

rat nAChR α3β4 = target: T3, rat nAChR α3β4 (Rattus norvegicus, UniProt P04757+P12392)
T3 construct: expressed in transfected cells; host or cells: Xenopus oocytes injected with cRNA
T3 sequence (P04757 26-499 limits assumed): as the sequence (P04757 26-499 limits assumed) above
T3 sequence (P12392 21-495 limits assumed): as the sequence (P12392 21-495 limits assumed) above

rat nAChR α9α10 = target: T4, rat nAChR α9α10 (Rattus norvegicus, UniProt P43144+Q9JLB5)
T4 construct: expressed in transfected cells; host or cells: Xenopus oocytes injected with cRNA
T4 sequence (P43144 26-479 limits assumed): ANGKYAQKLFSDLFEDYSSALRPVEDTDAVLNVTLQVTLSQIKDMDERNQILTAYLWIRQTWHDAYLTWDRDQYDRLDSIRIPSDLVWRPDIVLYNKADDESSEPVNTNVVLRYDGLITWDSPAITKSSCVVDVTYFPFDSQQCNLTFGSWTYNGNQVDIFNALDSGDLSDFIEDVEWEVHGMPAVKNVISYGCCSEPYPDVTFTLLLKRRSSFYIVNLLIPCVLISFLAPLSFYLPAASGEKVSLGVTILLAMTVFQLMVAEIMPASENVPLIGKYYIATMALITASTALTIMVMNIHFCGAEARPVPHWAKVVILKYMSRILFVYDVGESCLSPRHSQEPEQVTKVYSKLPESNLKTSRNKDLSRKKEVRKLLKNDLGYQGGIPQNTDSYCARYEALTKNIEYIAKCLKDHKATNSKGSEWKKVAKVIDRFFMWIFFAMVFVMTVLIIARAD
T4 sequence (Q9JLB5 25-447 limits assumed): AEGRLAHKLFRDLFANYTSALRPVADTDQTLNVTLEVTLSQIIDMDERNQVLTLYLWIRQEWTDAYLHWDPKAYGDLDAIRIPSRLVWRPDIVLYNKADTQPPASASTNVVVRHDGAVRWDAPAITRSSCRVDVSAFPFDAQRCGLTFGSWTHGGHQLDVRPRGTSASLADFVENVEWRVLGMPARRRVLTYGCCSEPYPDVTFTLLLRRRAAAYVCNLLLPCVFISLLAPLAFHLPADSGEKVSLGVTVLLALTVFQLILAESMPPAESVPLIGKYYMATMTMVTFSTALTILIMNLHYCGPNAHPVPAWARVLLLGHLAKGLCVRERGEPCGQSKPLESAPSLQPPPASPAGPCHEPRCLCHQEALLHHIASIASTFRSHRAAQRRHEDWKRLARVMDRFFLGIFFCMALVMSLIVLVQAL

rat nAChR α7 = target: T5, rat nAChR α7 (Rattus norvegicus, UniProt Q05941)
T5 construct: expressed in transfected cells; host or cells: Xenopus oocytes injected with cRNA
T5 sequence (Q05941 23-502 limits assumed): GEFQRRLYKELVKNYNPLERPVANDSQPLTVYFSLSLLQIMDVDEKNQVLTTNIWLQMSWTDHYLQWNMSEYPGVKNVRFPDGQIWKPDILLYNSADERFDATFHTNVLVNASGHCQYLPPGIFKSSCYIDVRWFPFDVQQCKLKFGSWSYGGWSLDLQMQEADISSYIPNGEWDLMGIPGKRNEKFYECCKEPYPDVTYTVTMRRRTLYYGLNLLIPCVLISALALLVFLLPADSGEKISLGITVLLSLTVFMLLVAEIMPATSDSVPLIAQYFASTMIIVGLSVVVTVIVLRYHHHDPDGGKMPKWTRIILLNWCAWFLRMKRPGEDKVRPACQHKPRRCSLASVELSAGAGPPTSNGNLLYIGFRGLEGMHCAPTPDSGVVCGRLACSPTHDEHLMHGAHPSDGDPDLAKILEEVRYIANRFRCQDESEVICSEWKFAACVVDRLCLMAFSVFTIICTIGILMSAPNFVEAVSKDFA

rat nAChR α3β2 [2] = target: T2, rat nAChR α3β2; type: cell-based; remark: listed apart in the source

SMILES	IC50 (rat nAChR α2β4)	kon (rat nAChR α3β2 [1])	koff (rat nAChR α3β2 [1]; SEM)	IC50 (rat nAChR α3β4)	IC50 (rat nAChR α9α10)	IC50 (rat nAChR α7)	IC50 (rat nAChR α3β2 [2])	other results
CC(C)C[C@@H]1NC(=O)[C@H](CCC(=O)O)NC(=O)[C@@H]2CCCN2C(=O)[C@H](Cc2c[nH]cn2)NC(=O)[C@H](CC(N)=O)NC(=O)[C@H](C(C)C)NC(=O)[C@H](Cc2c[nH]cn2)NC(=O)[C@@H]2CSSC[C@H](NC(=O)[C@H](C)NC(=O)[C@@H]3CCCN3)C(=O)N[C@@H](CSSC[C@@H](C(N)=O)NC1=O)C(=O)N[C@@H]([C@@H](C)O)C(=O)N[C@@H](Cc1c[nH]cn1)C(=O)N1CCC[C@H]1C(=O)N[C@@H](C)C(=O)N2 [Mr1.7[E2A,S12N]] (H-PACCTHPACHVNHPELC-NH2; disulfide 3-9, 4-17)	3490 nM	73800 M⁻¹ s⁻¹	0.00173 s⁻¹	556 nM	> 10000 nM	591 nM		
CC(C)C[C@@H]1NC(=O)[C@H](CCC(=O)O)NC(=O)[C@@H]2CCCN2C(=O)[C@H](Cc2c[nH]cn2)NC(=O)[C@H](CO)NC(=O)[C@H](C(C)C)NC(=O)[C@H](Cc2c[nH]cn2)NC(=O)[C@@H]2CSSC[C@H](NC(=O)[C@H](C)NC(=O)[C@@H]3CCCN3)C(=O)N[C@@H](CSSC[C@@H](C(N)=O)NC1=O)C(=O)N[C@@H]([C@@H](C)O)C(=O)N[C@@H](Cc1c[nH]cn1)C(=O)N1CCC[C@H]1C(=O)N[C@@H](C)C(=O)N2 [Mr1.7[E2A]] (H-PACCTHPACHVSHPELC-NH2; disulfide 3-9, 4-17)	> 10000 nM	86300 M⁻¹ s⁻¹	0.0028 s⁻¹	> 10000 nM	> 10000 nM	> 10000 nM		selectivity index (SI) for α3β2 (rat nAChR α3β2 [2]): > 847
CC(C)C[C@@H]1NC(=O)[C@H](CCC(=O)O)NC(=O)[C@@H]2CCCN2C(=O)[C@H](Cc2c[nH]cn2)NC(=O)[C@H](CC(N)=O)NC(=O)CNC(=O)[C@H](Cc2c[nH]cn2)NC(=O)[C@@H]2CSSC[C@H](NC(=O)CN)C(=O)N[C@@H](CSSC[C@@H](C(N)=O)NC1=O)C(=O)N[C@@H]([C@@H](C)O)C(=O)N[C@@H](Cc1c[nH]cn1)C(=O)N1CCC[C@H]1C(=O)N[C@@H](C)C(=O)N2 [Mr1.7[E2G,V11G,S12N,Δ1]] (H-GCCTHPACHGNHPELC-NH2; disulfide 2-8, 3-16; N-terminus assumed)	390 nM	208000 M⁻¹ s⁻¹	0.00352 s⁻¹	125 nM	> 10000 nM	> 10000 nM		α2β4/α3β2 (rat nAChR α2β4): 89; 50% recovery from block (rat nAChR α3β2 [1]): 3.3 min; t1/2 (rat nAChR α3β2 [1]): 3.286 (2.842–3.894) min; kobs (rat nAChR α3β2 [1]; SEM): 1.460 ± 0.2516 min⁻¹; α3β4/α3β2 (rat nAChR α3β4): 27; α9α10/α3β2 (rat nAChR α9α10): >2272; α7/α3β2 (rat nAChR α7): >2272
CC(C)C[C@@H]1NC(=O)[C@H](CCC(=O)O)NC(=O)[C@@H]2CCCN2C(=O)[C@H](Cc2c[nH]cn2)NC(=O)[C@H](CO)NC(=O)[C@H](C(C)C)NC(=O)[C@H](C)NC(=O)[C@@H]2CSSC[C@H](NC(=O)[C@H](CCC(=O)O)NC(=O)[C@@H]3CCCN3)C(=O)N[C@@H](CSSC[C@@H](C(N)=O)NC1=O)C(=O)N[C@@H]([C@@H](C)O)C(=O)N[C@@H](Cc1c[nH]cn1)C(=O)N1CCC[C@H]1C(=O)N[C@@H](C)C(=O)N2 [Mr1.7[H10A]] (H-PECCTHPACAVSHPELC-NH2; disulfide 3-9, 4-17)							123 nM	
CC(C)C[C@@H]1NC(=O)[C@H](CCC(=O)O)NC(=O)[C@@H]2CCCN2C(=O)[C@H](C)NC(=O)[C@H](CO)NC(=O)[C@H](C(C)C)NC(=O)[C@H](Cc2c[nH]cn2)NC(=O)[C@@H]2CSSC[C@H](NC(=O)[C@H](CCC(=O)O)NC(=O)[C@@H]3CCCN3)C(=O)N[C@@H](CSSC[C@@H](C(N)=O)NC1=O)C(=O)N[C@@H]([C@@H](C)O)C(=O)N[C@@H](Cc1c[nH]cn1)C(=O)N1CCC[C@H]1C(=O)N[C@@H](C)C(=O)N2 [Mr1.7[H13A]] (H-PECCTHPACHVSAPELC-NH2; disulfide 3-9, 4-17; N-terminus assumed)							> 10000 nM	
CC(C)C[C@@H]1NC(=O)[C@H](CCC(=O)O)NC(=O)[C@@H]2CCCN2C(=O)[C@H](Cc2c[nH]cn2)NC(=O)[C@H](CO)NC(=O)[C@H](C(C)C)NC(=O)[C@H](Cc2c[nH]cn2)NC(=O)[C@@H]2CSSC[C@H](NC(=O)[C@H](CCC(=O)O)NC(=O)[C@H](C)N)C(=O)N[C@@H](CSSC[C@@H](C(N)=O)NC1=O)C(=O)N[C@@H]([C@@H](C)O)C(=O)N[C@@H](Cc1c[nH]cn1)C(=O)N1CCC[C@H]1C(=O)N[C@@H](C)C(=O)N2 [Mr1.7[P1A]] (H-AECCTHPACHVSHPELC-NH2; disulfide 3-9, 4-17)							42 nM	
CC(C)C[C@@H]1NC(=O)[C@H](CCC(=O)O)NC(=O)[C@@H]2CCCN2C(=O)[C@H](Cc2c[nH]cn2)NC(=O)[C@H](CC(N)=O)NC(=O)[C@H](C(C)C)NC(=O)[C@H](Cc2c[nH]cn2)NC(=O)[C@@H]2CSSC[C@H](NC(=O)[C@H](CCC(=O)O)NC(=O)[C@@H]3CCCN3)C(=O)N[C@@H](CSSC[C@@H](C(N)=O)NC1=O)C(=O)N[C@@H]([C@@H](C)O)C(=O)N[C@@H](Cc1c[nH]cn1)C(=O)N1CCC[C@H]1C(=O)N[C@@H](C)C(=O)N2 [Mr1.7[S12N]] (H-PECCTHPACHVNHPELC-NH2; disulfide 3-9, 4-17)	370 nM and 367 nM	130000 M⁻¹ s⁻¹	0.00407 s⁻¹	850 nM	> 10000 nM	220 nM		
CC(C)C[C@@H]1NC(=O)[C@H](CCC(=O)O)NC(=O)[C@@H]2CCCN2C(=O)[C@H](Cc2c[nH]cn2)NC(=O)[C@H](CC(N)=O)NC(=O)CNC(=O)[C@H](Cc2c[nH]cn2)NC(=O)[C@@H]2CSSC[C@H](NC(=O)[C@H](CCC(=O)O)NC(=O)[C@@H]3CCCN3)C(=O)N[C@@H](CSSC[C@@H](C(N)=O)NC1=O)C(=O)N[C@@H]([C@@H](C)O)C(=O)N[C@@H](Cc1c[nH]cn1)C(=O)N1CCC[C@H]1C(=O)N[C@@H](C)C(=O)N2 [Mr1.7[V11G,S12N]] (H-PECCTHPACHGNHPELC-NH2; disulfide 3-9, 4-17)							28.4 nM	
CC(C)C[C@@H]1NC(=O)[C@H](CCC(=O)O)NC(=O)[C@@H]2CCCN2C(=O)[C@H](Cc2c[nH]cn2)NC(=O)[C@H](CO)NC(=O)CNC(=O)[C@H](Cc2c[nH]cn2)NC(=O)[C@@H]2CSSC[C@H](NC(=O)[C@H](CCC(=O)O)NC(=O)[C@@H]3CCCN3)C(=O)N[C@@H](CSSC[C@@H](C(N)=O)NC1=O)C(=O)N[C@@H]([C@@H](C)O)C(=O)N[C@@H](Cc1c[nH]cn1)C(=O)N1CCC[C@H]1C(=O)N[C@@H](C)C(=O)N2 [Mr1.7[V11G]] (H-PECCTHPACHGSHPELC-NH2; disulfide 3-9, 4-17)							138 nM	
CC(C)C[C@@H]1NC(=O)[C@H](CCC(=O)O)NC(=O)[C@@H]2CCCN2C(=O)[C@H](Cc2c[nH]cn2)NC(=O)[C@H](CO)NC(=O)[C@H](C(C)C)NC(=O)[C@H](Cc2c[nH]cn2)NC(=O)[C@@H]2CSSC[C@H](NC(=O)[C@H](CCC(=O)O)NC(=O)[C@@H]3CCCN3C(=O)[C@@H](N)CCCNC(=N)N)C(=O)N[C@@H](CSSC[C@@H](C(N)=O)NC1=O)C(=O)N[C@@H]([C@@H](C)O)C(=O)N[C@@H](Cc1c[nH]cn1)C(=O)N1CCC[C@H]1C(=O)N[C@@H](C)C(=O)N2 [RaaMr1.7] (H-RPECCTHPACHVSHPELC-NH2; disulfide 4-10, 5-18; N-terminus assumed)							41.2 nM	
